Target: mTOR/GbL/Raptor (mTORC1) (Homo sapiens, UniProt P42345)
Assay: mTOR/GbL/Raptor (mTORC1) ELISA assay, phosphorylation of 4E-BP1
Assay type: biochemical
Settings: 0.2 nM mTORC1, 40 uM ATP, 50 nM NHis-tagged 4E-BP1, 120 minutes; read-out: IC50 in this assay (mTORC1 ELISA)
Procedure: The measurement of mTORC1 enzyme activity was performed in an ELISA assay format following the phosphorylation of 4E-BP1 protein. All experiments were performed in the 384-well format. Generally, 0.5 μL DMSO containing varying concentrations of the test Compound was mixed with 15 μL enzyme solution. Kinase reactions were initiated with the addition of 15 μL of substrates-containing solution. The assay conditions were-as follows; 0.2 nM mTORC1, 40 uM ATPand 50 nM NHis-tagged4E-BP1 in20 mM Hepes, pH 7.2, 1 mM DTT, 50 mMNaC1, 10 mM MnC12, 0.02 mg/mL BSA, 0.01% CHAPS, 50 mM β-glycerophosphate. Following an incubation of 120 minutes at anibient temperature, 20 μL of the reaction volume was transferred to a Ni-Chelate-coated 384-well plate. The binding step of the 4E-BP1 protein proceeded for 60 minutes, followed by washing 4 times each with 50 uL of Tris-buffered saline solution (TBS). Anti-phospho-4E-BPl rabbit-IgG ([…]. 1:5000) in 5% BSA-TBST (0.2% Tween-20 in TBS) was added and further incubated for 60 minutes. Incubation with a secondary HRP-tagged anti-IgG was similarly performed after washing off the primary antibody (4 washes of 50 μL). Following the final wash step with TBST, 20 μL of SuperSignal ELISA Femto (Pierce Biotechnology) was added and the luminescence measured using an En Vision plate reader.

Row | IC50 | Structure (SMILES)
1 | ≤ 100 nM | Cc1cc(-c2cnc3sc(N)nc3c2)cc2c1OCCN(c1nc(N)c(C#N)cc1C#N)C2 [Compound 32, 2-amino-6-[7-(2-amino[1,3]thiazolo[5,4-b]pyridin-6-yl)-9-methyl-2,3-dihydro-1,4-benzoxazepin-4(5H)-yl]pyridine-3,5-dicarbonitrile]
2 | ≤ 100 nM | Cc1cc(-c2cnc3sc(N)nc3c2)cc2c1OCCN(c1nccnc1C#N)C2 [Compound 34, 3-[7-(2-amino[1,3]thiazolo[5,4-b]pyridin-6-yl)-9-methyl-2,3-dihydro-1,4-benzoxazepin-4(5H)-yl]pyrazine-2-carbonitrile]
3 | 100 to 500 nM | Cc1cc(-c2cnc3sc(N)nc3c2)cc2c1OCCN(c1ncc(F)c(N)n1)C2 [Compound 35, 6-[4-(4-amino-5-fluoropyrimidin-2-yl)-9-methyl-2,3,4,5-tetrahydro-1,4-benzoxazepin-7-yl][1,3]thiazolo[5,4-b]pyridin-2-amine]
4 | 100 to 500 nM | Cc1cc(-c2cnc3sc(N)nc3c2)cc2c1OCCN(c1ccc(C#N)cn1)C2 [Compound 36, 6-[7-(2-amino[1,3]thiazolo[5,4-b]pyridin-6-yl)-9-methyl-2,3-dihydro-1,4-benzoxazepin-4(5H)-yl]pyridine-3-carbonitrile]
5 | 100 to 500 nM | Cc1cnc(N2CCOc3c(C)cc(-c4cnc5sc(N)nc5c4)cc3C2)nc1N [Compound 37, 6-[4-(4-amino-5-methylpyrimidin-2-yl)-9-methyl-2,3,4,5-tetrahydro-1,4-benzoxazepin-7-yl][1,3]thiazolo[5,4-b]pyridin-2-amine]
6 | 100 to 500 nM | Cc1cc(-c2cnc3sc(N)nc3c2)cc2c1OCCN(c1ncccc1C#N)C2 [Compound 38, 2-[7-(2-amino[1,3]thiazolo[5,4-b]pyridin-6-yl)-9-methyl-2,3-dihydro-1,4-benzoxazepin-4(5H)-yl]pyridine-3-carbonitrile]
7 | 100 to 500 nM | Cc1cc(-c2cnc3sc(N)nc3c2)cc2c1OCCN(c1ncccc1C(N)=O)C2 [Compound 39, 2-[7-(2-amino[1,3]thiazolo[5,4-b]pyridin-6-yl)-9-methyl-2,3-dihydro-1,4-benzoxazepin-4(5H)-yl]pyridine-3-carboxamide]
8 | ≤ 100 nM | C=Cc1c(Cl)nc(N)nc1N1CCOc2c(C)cc(-c3cnc4sc(N)nc4c3)cc2C1 [Compound 40, 6-[4-(2-amino-6-chloro-5-ethenylpyrimidin-4-yl)-9-methyl-2,3,4,5-tetrahydro-1,4-benzoxazepin-7-yl][1,3]thiazolo[5,4-b]pyridin-2-amine]
9 | ≤ 100 nM | CCCc1c(C)nc(N)nc1N1CCOc2c(C)cc(-c3cnc4sc(N)nc4c3)cc2C1 [Compound 41, 6-[4-(2-amino-6-methyl-5-propylpyrimidin-4-yl)-9-methyl-2,3,4,5-tetrahydro-1,4-benzoxazepin-7-yl][1,3]thiazolo[5,4-b]pyridin-2-amine]
10 | ≤ 100 nM | Cc1cc(-c2ccc(-c3ncc[nH]3)cc2)cc2c1OCCN(c1nc(N)nc(C)c1C(C)C)C2 [Compound 42, 4-{7-[4-(1H-imidazol-2-yl)phenyl]-9-methyl-2,3-dihydro-1,4-benzoxazepin-4(5H)-yl}-6-methyl-5-(1-methylethyl)pyrimidin-2-amine]
11 | ≤ 100 nM | Cc1cc(-c2cnc(Cl)c(NS(C)(=O)=O)c2)cc2c1OCCN(c1nc(C(=O)NCCN(C)C)nc(C)c1C(C)C)C2 [Compound 43, 4-[7-(6-chloro-5-[(methylsulfonyl)amino]pyridin-3-yl}-9-methyl-2,3-dihydro-1,4-benzoxazepin-4(5H)-yl]-N-[2-(dimethylamino)ethyl]-6-methyl-5-(1-methylethyl)pyrimidine-2-carboxamide]
12 | ≤ 100 nM | Cc1cc(-c2cnc(Cl)c(NS(C)(=O)=O)c2)cc2c1OCCN(c1nc(C(N)=O)nc(C)c1C(C)C)C2 [Compound 44, 4-[7-{6-chloro-5-[(methylsulfonyl)amino]pyridin-3-yl}-9-methyl-2,3-dihydro-1,4-benzoxazepin-4(5H)-yl]-6-methyl-5-(1-methylethyl)pyrimidine-2-carboxamide]
13 | 100 to 500 nM | Cc1nc2ccc(-c3cc(C)c4c(c3)CN(c3nc(CN(C)C)nc(C)c3C(C)C)CCO4)cc2[nH]1 [Compound 45, N,N-dimethyl-1-{4-methyl-5-(1-methylethyl)-6-[9-methyl-7-(2-methyl-1H-benzimidazol-6-yl)-2,3-dihydro-1,4-benzoxazepin-4(5H)-yl]pyrimidin-2-yl}methanamine]
14 | ≤ 100 nM | Cc1cc(-c2cnc3sc(N)nc3c2)cc2c1OCCN(c1nc(N)nc(C)c1CC1CC1)C2 [Compound 46, 6-{4-[2-amino-5-(cyclopropylmethyl)-6-methylpyrimidin-4-yl]-9-methyl-2,3,4,5-tetrahydro-1,4-benzoxazepin-7-yl}[1,3]thiazolo[5,4-b]pyridin-2-amine]
15 | 100 to 500 nM | Cc1nc2ccc(-c3cc(C)c4c(c3)CN(c3ncnc5ccc(I)cc35)CCO4)cc2[nH]1 [Compound 47, 4-(6-iodoquinazolin-4-yl)-9-methyl-7-(2-methyl-1H-benzimidazol-6-yl)-2,3,4,5-tetrahydro-1,4-benzoxazepine]
16 | 100 to 500 nM | Cc1cnccc1N1CCOc2c(C)cc(-c3cnc4sc(N)nc4c3)cc2C1 [Compound 48, 6-[9-methyl-4-(3-methylpyridin-4-yl)-2,3,4,5-tetrahydro-1,4-benzoxazepin-7-yl][1,3]thiazolo[5,4-b]pyridin-2-amine]
17 | ≤ 100 nM | Cc1cc(-c2cnc3sc(N)nc3c2)cc2c1OCCN(c1nc(N)nc(C)c1-c1cccc(F)c1)C2 [Compound 49, 6-{4-[2-amino-5-(3-fluorophenyl)-6-methylpyrimidin-4-yl]-9-methyl-2,3,4,5-tetrahydro-1,4-benzoxazepin-7-yl}[1,3]thiazolo[5,4-b]pyridin-2-amine]
18 | ≤ 100 nM | Cc1cc(-c2cnc3sc(N)nc3c2)cc2c1OCCN(c1nc(NCCN(C)C)nc(C)c1C(C)C)C2 [Compound 50, N′-{4-[7-(2-amino[1,3]thiazolo[5,4-b]pyridin-6-yl)-9-methyl-2,3-dihydro-1,4-benzoxazepin-4(5H)-yl]-6-methyl-5-(1-methylethyl)pyrimidin-2-yl}-N,N-dimethylethane-1,2-diamine]
19 | ≤ 100 nM | C=CCc1c(C)nc(N)nc1N1CCOc2c(C)cc(-c3cnc4sc(N)nc4c3)cc2C1 [Compound 51, 6-{4-(2-amino-6-methyl-5-prop-2-en-1-ylpyrimidin-4-yl)-9-methyl-2,3,4,5-tetrahydro-1,4-benzoxazepin-7-yl][1,3]thiazolo[5,4-b]pyridin-2-amine]
20 | ≤ 100 nM | Cc1cc(-c2cnc(Cl)c(NS(=O)(=O)C(F)(F)F)c2)cc2c1OCCN(c1nc(N)nc(C)c1C(C)C)C2 [Compound 52, N-(5-{4-[2-amino-6-methyl-5-(1-methylethyl)pyrimidin-4-yl]-9-methyl-2,3,4,5-tetrahydro-1,4-benzoxazepin-7-yl}-2-chloropyridin-3-yl)-1,1,1-trifluoromethanesulfonamide]
21 | ≤ 100 nM | CNc1nc(C)c(C(C)C)c(N2CCOc3c(C)cc(-c4cnc5sc(N)nc5c4)cc3C2)n1 [Compound 53, 6-{9-methyl-4-[6-methyl-2-(methylamino)-5-(1-methylethyl)pyrimidin-4-yl]-2,3,4,5-tetrahydro-1,4-benzoxazepin-7-yl}[1,3]thiazolo[5,4-b]pyridin-2-amine]

Source: US20140107100A1, “Benzoxazepines as Inhibitors of PI3K/mTOR and Methods of Their Use and Manufacture” (EXELIXIS, INC., priority 2010, published 2014)
